Experimental data published in patent US20220324912A1, “THERAPEUTIC PEPTIDES” (COHBAR, INC., priority 2019, published 2022).
Non-standard residues stand in square brackets, D forms with d. Residues, ends and D or L forms follow the SMILES beside them. No end group written: not given here.

How the values were obtained:
3T3-L1 adipocytes = assay: Free Fatty Acid Levels in 3T3-L1 Adipocytes (Example 4, 25 μM); assay type: cell-based, mouse; conditions: for Free fatty acid levels, Percent of Control Value (percent isoproterenol control): peptides 25 μM, 20-22 hours then 3 hours with isoproterenol 1 nM, 3T3-L1 adipocytes
Experimental: Following 12-15 days' differentiation, test peptides were added to a final concentration of 25 μM and incubated for 20-22 hours in Adipocyte Maintenance Medium. After 20-22 hours, isoproterenol (1 nM) was added to all wells except untreated controls and test peptides were replenished. Cells were incubated for a further 3 hours in Assay Buffer (Zen-Bio). Free fatty acid concentrations in the media were determined using a Free Fatty Acid Assay Kit (Zen-Bio) according to the manufacturer's instructions using a plate reader (540 nm). Absorbance values were corrected for untreated background and expressed relative to isoproterenol treated cells. Treatment with isoproterenol (1 nM) alone was used as the free fatty acid level stimulatory control. The relative standard deviation of the isoproterenol control was <10%. […] Free fatty acid levels for insulin (100 nM) treatment were <5% of the isoproterenol control value.

3T3-L1 mouse adipocytes = assay: Free Fatty Acid Levels in 3T3-L1 Mouse Adipocytes (Example 12, 10 μM); assay type: cell-based; conditions: insulin 100 nM, Example 12
Experimental: The effect of the peptides on fatty acid metabolism can be assessed using an assay of free fatty acid levels in cultured cells such as mouse adipocytes. Peptides were initially prepared as 10 mM stock in DMSO, diluted to 1 mM in H2O, and used at a final concentration of 10 μM (0.1% DMSO). […] After 20-22 hours, 1 nM isoproterenol was added to all wells except untreated controls and test peptides were replenished. Insulin at 100 nM was added to control wells. […] Free fatty acid concentrations in the media were determined using a Free Fatty Acid Assay kit (Zen-Bio) according to the manufacturer's instructions using a Cytation 3 plate reader at 540 nm (BioTek, Winooski, Vt.). Absorbance values were corrected for untreated background and expressed relative to isoproterenol treated cells. Treatment with isoproterenol (1 nM) alone was used as the free fatty acid level stimulatory control. The relative standard deviation of the isoproterenol control was <10%. […] Free fatty acid levels for insulin (100 nM) treatment were <5% of the isoproterenol control value.

[1] = Stability in Mouse Plasma; assay type: in vitro ADME; conditions: pooled mouse plasma, 37° C., peptides 100 DM; for remaining at 0.25 h, 100 DM: 15 min; for remaining at 0.5 h, 100 DM: 30 min; for remaining at 1 h, 100 DM: 60 min; for remaining at 2 h, 100 DM: 120 min; for remaining at 3 h, 100 DM: 180 min
Experimental: Peptides (100 DM) were incubated in pooled mouse plasma at 37° C. and samples were removed and immediately analyzed for the concentration of intact peptide by LC/MS/MS over the course of 3 hours. The percent of peptide remaining in plasma at each time point was calculated relative to the initial peak area (Table 9).

DIO mice = assay: Effects in Diet Induced Obese (DIO) mice, once daily subcutaneous, 10 days (Example 9); assay type: in vivo, mouse; conditions: for Difference from Vehicle Control: Decrease from Baseline in Blood Glucose / Difference from Vehicle Control: Decrease from Baseline in Body Weight / Difference from Vehicle Control: Decrease from Baseline in Fat Mass: male DIO mice
Experimental: C57BL/6 mice were maintained on a high fat diet for 18 weeks to develop diet induced obesity. Animals were randomized to treatment groups based on blood glucose levels and body weight. The peptide of SEQ ID NO: 9 was administered to two groups of male DIO mice once daily by subcutaneous injection at doses of 5.0 or 15 mg/kg/dose for 10 days (N=8 animals per treatment group). An additional group of male DIO mice (n=8) received vehicle (water) alone. Body weight, blood glucose levels and food intake were monitored. Body mass distribution (fat vs lean) was determined by quantitative whole body NMR prior to dosing and at the end of dosing.

C2C12 cells [2] = assay: Cellular ROS Levels Induced by TBHP in C2C12 Cells (DCFDA); assay type: cell-based, mouse; conditions: sulforaphane 10 µM
Experimental: The protective or synergistic effect of the peptides on cellular levels of reactive oxygen species (ROS) induced by oxidative stress can be assessed using an assay of ROS in cultured cells such as mouse myoblasts exposed to a suitable oxidative stress. Peptides were initially prepared as 10 mM stock in DMSO, diluted to 1 mM in H2O, and added at a final concentration of 10 μM (0.1% DMSO). […] TBHP was used at final concentration of 100 μM. Sulforaphane at final concentration of 10 µM was used as a protective control against TBHP induced ROS production. […] C2C12 cells were grown in DMEM supplemented with 20% FBS with 100 IU/ml penicillin and 100 μg/ml streptomycin. […] C2C12 cells were seeded at 7,500 cells per well on 96-well plates. […] After 18-20 hours of incubation the cells were loaded with DCFDA for 45 min. TBHP at 100 μM was then added to the appropriate wells for 1 hour. ROS activity was determined using a DCFDA Cellular ROS Detection Assay kit (Abcam, Cambridge, Mass.) according to the manufacturer's instructions. Fluorescence in each sample well on the plate was measured using a Cytation 3 plate reader at Ex/Em=485/535 nm (BioTek, Winooski, Vt.). Activity was calculated relative to TBHP control. The relative standard deviation of the sulforaphane control was <20%. The ROS level produced by the sulforaphane control in the presence of TBHP was 52% of the TBHP control.

C2C12 cells [3] = assay: Cell Proliferation in C2C12 Cells (Cyquant DNA dye); assay type: cell-based, mouse; conditions: lovastatin 10 μM, 72 hours
Experimental: The effect of the peptides on cell proliferation was assessed using a DNA dye binding assay in cultured cells such as mouse myoblast cells. Peptides were initially prepared as 10 mM stock in DMSO, diluted to 1 mM in H2O, and added at a final concentration of 10 μM (0.1% DMSO). Lovastatin was used as a growth arrest control at final concentration of […]. […] C2C12 cells were grown in DMEM supplemented with 20% FBS with 100 IU/ml penicillin and 100 μg/ml streptomycin. […] C2C12 cells were seeded at 800 cells per well on 96-well plates. […] Cell proliferation was determined using Cyquant Direct Nucleic Acid Stain (Thermo Fisher Scientific, Waltham, Mass.) according to the manufacturer's instructions. Fluorescence for each sample well on the plate was measured using a Cytation 3 plate reader at Ex/Em=495/535 nm (BioTek, Winooski, Vt.). Activity was calculated relative to 0.1% DMSO untreated control. The relative standard deviation for the lovastatin control was <27%. The cell proliferation for the lovastatin control was <25% of the value for untreated control.

Compound: 22 ([dA]FQKTHNLNQHNHPQPNY) [compound 22]
- Free fatty acid levels, Percent of Control Value (percent isoproterenol control) (3T3-L1 adipocytes): 135%

Compound: 4 (LAVRRTARAI) [compound 4]
- Free fatty acid levels, Percent of Control Value (percent isoproterenol control) (3T3-L1 adipocytes): 102%

Compound: 27 (VVKGPLSEGGHPWGREG) [compound 27]
- Free fatty acid levels, Percent of Control Value (percent isoproterenol control) (3T3-L1 adipocytes): 89%

Compound: 28 (VKAPLSEGGHPWGREG) [compound 28]
- Free fatty acid levels, Percent of Control Value (percent isoproterenol control) (3T3-L1 adipocytes): 135%

Compound: 21 (TFQKTHNLNQHNHPQPNY) [compound 21]
- Free fatty acid levels, Percent of Control Value (percent isoproterenol control) (3T3-L1 adipocytes): 91%

Compound: 26 (VVKGPLSEGGHPWGREGI) [compound 26]
- Free fatty acid levels, Percent of Control Value (percent isoproterenol control) (3T3-L1 adipocytes): 129%

Compound: insulin [reference compound]
- Free fatty acid levels, % of isoproterenol control value (3T3-L1 mouse adipocytes): < 5%
- Free fatty acid levels, % of isoproterenol control value (3T3-L1 adipocytes; insulin 100 nM, Example 4): < 5%

Compound: CC[C@H](C)[C@H](NC(=O)[C@@H](C)NC(=O)[C@H](CO)NC(=O)CNC(=O)[C@@H]1CCCN1C(=O)[C@H](CC(C)C)NC(=O)[C@@H](N)CCCNC(=N)N)C(=O)N[C@@H](CC(C)C)C(=O)N[C@H](C(=O)N[C@@H](CC(N)=O)C(=O)N1CCC[C@H]1C(=O)N[C@H](C(=O)N[C@@H](CC(C)C)C(=O)NCC(=O)N[C@@H](Cc1c[nH]c2ccccc12)C(=O)N[C@H](C(=O)N[C@@H](Cc1c[nH]c2ccccc12)C(=O)N[C@H](C(=O)O)C(C)C)C(C)C)C(C)C)[C@@H](C)O [compound 9] (H-RLPGS[dA]ILTNPVLGWVWV-OH)
- % Remaining at 0 min [1]: 100%
- remaining at 0.25 h, 100 DM [1]: 90.5%
- remaining at 0.5 h, 100 DM [1]: 81%
- remaining at 1 h, 100 DM [1]: 72%
- remaining at 2 h, 100 DM [1]: 56.5%
- remaining at 3 h, 100 DM [1]: 46.6%

Compound: 23 ([dA]FQKTHNLNQHNHPQ[dA]N) [compound 23]
- Free fatty acid levels, Percent of Control Value (percent isoproterenol control) (3T3-L1 adipocytes): 114%

Compound: 31 (WAIDEKAVEASGE) [compound 31]
- Free fatty acid levels, Percent of Control Value (percent isoproterenol control) (3T3-L1 adipocytes): 115%

Compound: CC[C@H](C)[C@H](NC(=O)[C@@H](C)NC(=O)[C@H](CO)NC(=O)CNC(=O)[C@@H]1CCCN1C(=O)[C@H](CC(C)C)NC(=O)[C@@H](N)CCCNC(=N)N)C(=O)N[C@@H](CC(C)C)C(=O)N[C@H](C(=O)N[C@@H](CC(N)=O)C(=O)N1CCC[C@H]1C(=O)N[C@H](C(=O)N[C@@H](CC(C)C)C(=O)NCC(=O)N[C@@H](Cc1c[nH]c2ccccc12)C(=O)N[C@H](C(=O)O)C(C)C)C(C)C)[C@@H](C)O [compound 10] (H-RLPGS[dA]ILTNPVLGWV-OH)
- % Remaining at 0 min [1]: 100%
- remaining at 0.25 h, 100 DM [1]: 76.5%
- remaining at 0.5 h, 100 DM [1]: 58.1%
- remaining at 1 h, 100 DM [1]: 44.4%
- remaining at 2 h, 100 DM [1]: 18.1%
- remaining at 3 h, 100 DM [1]: 8.9%

Compound: RLPGS(dA)ILTNPVLGWVWV (RLPGS[dA]ILTNPVLGWVWV) [SEQ ID NO: 9]
- Difference from Vehicle Control: Decrease from Baseline in Blood Glucose (DIO mice; 5.0 mg/kg/dose): 7.0 mg/dL
- Difference from Vehicle Control: Decrease from Baseline in Body Weight (DIO mice; 5.0 mg/kg/dose): 1.79%
- Difference from Vehicle Control: Decrease from Baseline in Fat Mass (DIO mice; 5.0 mg/kg/dose): 0.56 g
- Difference from Vehicle Control: Decrease from Baseline in Blood Glucose (DIO mice; 15.0 mg/kg/dose): 18.0 mg/dL
- Difference from Vehicle Control: Decrease from Baseline in Body Weight (DIO mice; 15.0 mg/kg/dose): 1.96%
- Difference from Vehicle Control: Decrease from Baseline in Fat Mass (DIO mice; 15.0 mg/kg/dose): 0.86 g
- Body weight loss compared to vehicle (in words) (DIO mice; 5.0 or 15 mg/kg/dose): greater body weight loss
- Decrease in fat mass from baseline compared to vehicle (in words) (DIO mice; 5.0 or 15 mg/kg/dose): greater decrease in fat mass
- Reduction in blood glucose compared to vehicle (in words) (DIO mice; 5.0 or 15 mg/kg/dose): greater reduction in blood glucose

Compound: CC[C@H](C)[C@H](NC(=O)[C@H](C)NC(=O)[C@H](CO)NC(=O)CNC(=O)[C@@H]1CCCN1C(=O)[C@H](CC(C)C)NC(=O)[C@@H](N)CCCNC(=N)N)C(=O)N[C@@H](CC(C)C)C(=O)N[C@H](C(=O)N[C@@H](CC(N)=O)C(=O)N1CCC[C@H]1C(=O)N[C@H](C(=O)N[C@@H](CC(C)C)C(=O)NCC(=O)N[C@@H](Cc1c[nH]c2ccccc12)C(=O)N[C@H](C(=O)N[C@@H](Cc1c[nH]c2ccccc12)C(=O)N[C@H](C(=O)O)C(C)C)C(C)C)C(C)C)[C@@H](C)O [compound 8] (H-RLPGSAILTNPVLGWVWV-OH)
- % Remaining at 0 min [1]: 100%
- remaining at 0.25 h, 100 DM [1]: 84.9%
- remaining at 0.5 h, 100 DM [1]: 82.7%
- remaining at 1 h, 100 DM [1]: 70.9%
- remaining at 2 h, 100 DM [1]: 58.7%
- remaining at 3 h, 100 DM [1]: 45%

Compound: 3 (LAVRRTARAIG) [compound 3]
- Free fatty acid levels, Percent of Control Value (percent isoproterenol control) (3T3-L1 adipocytes): 91%

Compound: 5 (LAVRRTARA[dA]) [compound 5]
- Free fatty acid levels, Percent of Control Value (percent isoproterenol control) (3T3-L1 adipocytes): 109%

Compound: C[S+]([O-])CCCCN=C=S (stereo not shown) [sulforaphane, reference compound]
- ROS level in the presence of TBHP, % of the TBHP control (C2C12 cells [2]): 52%

Compound: CC[C@H](C)C(=O)O[C@H]1C[C@@H](C)C=C2C=C[C@H](C)[C@H](CC[C@@H]3C[C@@H](O)CC(=O)O3)[C@H]21 [lovastatin, reference compound]
- Cell proliferation, % of the value for untreated control (C2C12 cells [3]): < 25%

Compound: 33 (W[dA]IDEKAVE[dA]SGE) [compound 33]
- Free fatty acid levels, Percent of Control Value (percent isoproterenol control) (3T3-L1 adipocytes): 92%

Compound: 32 (W[dA]IDEKAVEASGE) [compound 32]
- Free fatty acid levels, Percent of Control Value (percent isoproterenol control) (3T3-L1 adipocytes): 102%
